Series [1] concerns CYP3A. The series can be described thus: Intravenous MDZ (1.0 mg i.v.) plasma pharmacokinetics (MDZ and 1′-OH-MDZ) alone and after repeated inhibitor administration. Conditions: MDZ 1 mg i.v., geometric mean (90% CI).
Procedure: (§1) ITZ tablets (200 mg) were split equally in two, and 100 mg were given to subjects.
(§2) MDZ acted as a nested control in the evaluation of the endogenous urinary markers, and it was administered both orally (1.5 mg) and intravenously (i.v.; 1.0 mg). Participants were all treated the same way for the baseline and randomly split into 3 arms of 8–10 individuals each to evaluate the effect of the inhibitors. […] MDZ pharmacokinetic (PK) profiling and biomarker sampling was also conducted after the washout period and at the end of the study to determine whether enzyme activity returned to baseline levels. The subjects were their control. Treatment, washout and end of study values were compared with values at baseline.
(§3) Plasma concentrations of MDZ and its metabolite 1′-OH-MDZ were analysed using a validated LC-MS/MS method. Plasma samples were extracted using protein precipitation, where 300 µL of acetonitrile (ACN) containing 500 ng/mL diazepam as an internal standard (IS) was added to 100 µL of plasma. The mixture was then vortexed for 10 min, followed by centrifugation at 10,000× g for 5 min at a temperature of 4 °C. The supernatant was collected, and 5 µL were injected into the LC-MS/MS for analysis.
(§4) The mobile phase consisted of 10 mM ammonium formate in 5% methanol (MeOH) (A) and ACN (B). […] The column temperature was maintained at 40 °C. MDZ and 1′-OH-MDZ were detected on a Sciex 3200 mass spectrometer with a turbo ion spray interphase operated in positive ion mode at 5500 V, a temperature of 5000 °C; GS1 and GS2 at 50 and 60 psi, respectively; and a curtain gas flow of 25 psi. […] The quantification of the MDZ and 1′-OH-MDZ was performed using the Analyst software (version 1.2; Applied Biosystems).
(§5) Standard non-compartmental pharmacokinetic (PK) analysis was performed with the WinNolin program, version 4.1 (Pharsight Corp, Mountain View, CA, USA), using the linear up logarithmic down trapezoidal method. The plasma parameters that were assessed and used for the comparison with the urinary biomarker were MDZ clearance (MDZ CL) and the area under the plasma concentration-time curve (AUC) from zero to infinity (AUC0–inf) of MDZ. More PK parameters were evaluated for MDZ and 1′-OH-MDZ.
(§6) The difference between log-transformed treatment/baseline was calculated pairwise for each subject, as well as for their 90% confidence intervals (CIs). These differences and CIs were anti-log-transformed back for reporting purposes. The same analysis was performed for MDZ clearance and AUC0-inf before and after treatment for comparison.
(§7) The pharmacokinetic (PK) parameters of MDZ were performed by standard noncompartmental
(§8) methods using the WinNolin program, version 4.1 (Pharsight Corp, Mountain View, CA, USA).
(§9) were plotted as graphs of midazolam or 1-OH-midazolam concentration vs. time.
Series [2] relates to CYP3A. In words: Oral MDZ (1.5 mg p.o.) plasma pharmacokinetics (MDZ and 1′-OH-MDZ) alone and after repeated inhibitor administration. Conditions: for 1’-OH-MDZ AUC0– (zero to infinity), MDZ alone / 1’-OH-MDZ AUClast, MDZ alone / 1’-OH-MDZ Cmax, MDZ alone / 1’-OH-MDZ T1/2, MDZ alone / 1’-OH-MDZ Tmax, MDZ alone: MDZ 1.5 mg p.o., geometric mean (90% CI).
Procedure: as §1, §2, §3, §4, §5, §6, §7, §8, §9
The subject of series [3] is CYP3A.
Procedure: as §1, §2
Sample preparations for the analysis of 1β-OH-DCA and ToDCA in human urine were performed using a previously described method but without acid solvolysis [15, 20]. In brief, an aliquot of 50 µL of a 0.1 M Tris HCL buffer (pH 5) containing a mixture of hydrolysis enzymes (100 U/mL choloylglycine hydrolase, 200 µL/mL β-glucuronidase/arylsulfatase, and 100 U/mL sulfatase) was added to 50 µL of urine, followed by adding 50 µL of an aqueous solution containing 1 µM of (D4)-DCA and (D4)-1β-OH-DCA as IS. The mixture was incubated overnight at 37 °C at a shaking speed of 500 rpm for enzymatic hydrolysis of glucuronides, sulfates, and amino acid conjugates. The reaction mixture was then quenched with a 300 µL ACN-MeOH (1:1, v/v) solution followed by centrifugation at 4000× g, 4 °C for 20 min. The supernatant was separated and diluted with an equal volume of water for ultra-high-performance liquid chromatography-high resolution mass spectrometry (UPLC-HRMS) analysis. […]
References containing 10 µM G-DCA, T-DCA, G-1β-OH-DCA, T-1β-OH-DCA, CDCA-24-G, and DCA-3-S were also prepared in stripped urine and subjected to enzymatic hydrolysis to monitor the efficiency of enzymatic deconjugation. […] Therefore, the concentrations of DCA-3-S were also determined in urine and combined with free DCA to represent the total concentration of DCA, i.e., ToDCA. […]
For series [4], the system named is CYP3A. The conditions noted are these: human, in vivo.
Procedure: as §1, §2, §3, §4, §5, §6, §7, §8, §9
Series [5] relates to CYP3A. The conditions noted are these: human, in vivo, iv.
Procedure: as §1, §2, §3, §4, §5, §6, §7, §8, §9
The test system of series [6] is CYP3A. The conditions noted are these: ITZ 200 mg od for 6 days; cited from earlier work.
[7] abbreviates: repeated administration (APZ 1 mg od).

Entries after “also recorded” stand apart in the source; their conditions may differ. Read-outs that look alike come from different tables or passages of the source. Marks after values point to notes of the source that are not given here.

As to `OCc1ncc2n1-c1ccc(Cl)cc1C(c1ccccc1F)=NC2` [1’-OH-MDZ, 1′-hydroxymidazolam], the “1’-OH-MDZ AUC0– (zero to infinity), MDZ alone” value is on record as 4.49 (2.12–9.50) ng·h/mL with CYP3A [1] (APZ arm (Table S1)); 3.31 (1.92 – 5.72) ng·h/ml in the series on CYP3A [1] (FKZ arm (Table S2)); 2.26 (1.5 – 3.41) ng·h/ml in the series with CYP3A [1] (ITZ arm (Table S3)); 10.56 (6.77–16.48) ng·h/mL in the series with CYP3A [2] (APZ arm (Table S1)); 6.73 (3.77 – 12.01) ng·h/ml in the series on CYP3A [2] (FKZ arm (Table S2)); 4.57 (3.04 – 6.88) ng·h/ml with CYP3A [2] (ITZ arm (Table S3)). For the same compound, the “1’-OH-MDZ AUClast, MDZ alone” value with CYP3A [1] (APZ arm (Table S1)) was 2.54 (1.49–4.35) ng·h/ml; in the series with CYP3A [1] (FKZ arm (Table S2)), 2.56 (1.65 - 3.96) ng·h/ml; in the series on CYP3A [1] (ITZ arm (Table S3)), 2.00 (1.41 – 3.01) ng·h/ml; in the series with CYP3A [2] (APZ arm (Table S1)) it was 8.23 (6.15–11.02) ng·h/mL; in the series with CYP3A [2] (FKZ arm (Table S2)) it was 6.56 (3.6 – 11.94) ng·h/ml; with CYP3A [2] (ITZ arm (Table S3)), 4.22 (2.8 -6.36) ng·h/ml. Further, the “1’-OH-MDZ Cmax, MDZ alone” value with CYP3A [1] (APZ arm (Table S1)) is on record as 1.24 (1.02–1.50) ng/mL; with CYP3A [1] (FKZ arm (Table S2)) it was 1.09 (0.76 – 1.56) ng/ml; in the series on CYP3A [1] (ITZ arm (Table S3)), 1.09 (0.87 – 1.35) ng/ml; with CYP3A [2] (APZ arm (Table S1)) it was 2.60 (2.13–3.18) ng/mL; in the series on CYP3A [2] (FKZ arm (Table S2)), 2.81 (1.61 – 4.92) ng/ml; with CYP3A [2] (ITZ arm (Table S3)), 2.29 (1.64 – 3.19) ng/ml. The “1’-OH-MDZ T1/2, MDZ alone” value was 2.30 (1.44 -3.65) h in the series with CYP3A [1] (FKZ arm (Table S2)); 1.25 (0.8 – 1.95) h with CYP3A [1] (ITZ arm (Table S3)); 2.54 (1.26–5.09) h in the series on CYP3A [2] (APZ arm (Table S1)); 1.99 (1.32 – 3.0) h with CYP3A [2] (FKZ arm (Table S2)); 1.34 (1.05 -1.7) h with CYP3A [2] (ITZ arm (Table S3)). Besides, the “1’-OH-MDZ Tmax, MDZ alone” value in the series on CYP3A [1] (FKZ arm (Table S2)) is on record as 0.79 (0.69 – 0.90) h; with CYP3A [1] (ITZ arm (Table S3)), 0.79 (0.69 -0.90) h; with CYP3A [2] (APZ arm (Table S1)), 0.77 (0.65–0.91) h; in the series on CYP3A [2] (FKZ arm (Table S2)) it was 0.83 (0.56 – 1.21) h; with CYP3A [2] (ITZ arm (Table S3)), 0.71 (0.63 – 0.80) h.
For the compound `Cc1nnc2n1-c1ccc(Cl)cc1C(c1ccccc1)=NC2` [APZ, alprazolam], the “effect on 1β-OH-DCA/ToDCA UMR (in words)” value in the series with CYP3A [3] (setting [7]) was “No inhibition; also recorded: no significant effect”. Moreover, in the series with CYP3A [2] (setting [7]), the “effect on MDZ PK parameters (in words)” value is listed as “no significant effect”.
As for `OC(Cn1cncn1)(Cn1cncn1)c1ccc(F)cc1F` [FKZ, fluconazole], the “1’-OH-MDZ T1/2, MDZ + inhibitor” value is listed as 1.71 (1 – 2.89) h with CYP3A [4] (po) and 2.25 (1.56 – 3.23) h in the series on CYP3A [5]. Besides, the “1’-OH-MDZ Tmax, MDZ + inhibitor” value with CYP3A [4] (po) is listed as 0.83 (0.68 – 1) h; in the series on CYP3A [5], 0.70 (0.59 – 0.83) h.
Consider `CCC(C)n1ncn(-c2ccc(N3CCN(c4ccc(OCC5COC(Cn6cncn6)(c6ccc(Cl)cc6Cl)O5)cc4)CC3)cc2)c1=O` (stereo not shown) [ITZ, itraconazole], for which, in the series with CYP3A [6], the “fold increase in oral MDZ AUC” value is 6.6 fold and the “reduced oral MDZ clearance” value was 85%. The “time after completion of treatment at which 1β-OH-DCA/ToDCA ratio was fully restored to baseline” value in the series on CYP3A [3] (after ITZ 100 mg od for 6 days) is on record as “nine”. Moreover, in the series on CYP3A [4], the “Oral MDZ CL, Treatment/Baseline (90%CI)” value was 0.30 ** (0.18–0.47) and the “decrease of oral MDZ CL from baseline” value is 70%. In addition, the “i.v. MDZ CL, Treatment/Baseline (90%CI)” value in the series on CYP3A [5] is 0.44 * (0.26–0.73).

The values are drawn from article PMC8224742, “Evaluation of 1β-Hydroxylation of Deoxycholic Acid as a Non-Invasive Urinary Biomarker of CYP3A Activity in the Assessment of Inhibition-Based Drug–Drug Interaction in Healthy Volunteers” (Journal of Personalized Medicine, 2021).
